According to the NIST ThermoML archive (doi:10.1016/j.jct.2008.09.002):

Legend:
[1] = xn = mol fraction of the nth substance listed; conditions: 101.3 kPa, Liquid, Vibrating tube method
[2] = molar heat capacity at constant pressure; xn = mol fraction of the nth substance listed; conditions: 101.3 kPa, Liquid, Small sample (50 mg) DSC
[3] = excess molar enthalpy (molar enthalpy of mixing); xn = mol fraction of the nth substance listed; conditions: 303.15 K, 101.3 kPa, Liquid, Calvet calorimetry

CCCCCCn1cc[n+](C)c1.F[B-](F)(F)F [1-hexyl-3-methylimidazolium tetrafluoroborate] + C[N+](=O)[O-]
Conditions | mass density, [1] [kg/m3] | molar heat capacity at constant pressure, [2] [J/K/mol]
293.15 K, x1 = 0.098 | 1148.7 | 136.3
293.15 K, x1 = 0.1933 | 1150.7 | 166.4
293.15 K, x1 = 0.3062 | 1151.2 | 202.6
293.15 K, x1 = 0.3988 | 1151.1 | 232.4
293.15 K, x1 = 0.4936 | 1150.9 | 262.8
293.15 K, x1 = 0.5941 | 1150.5 | 295.4
293.15 K, x1 = 0.5973 | 1150.5 | –
293.15 K, x1 = 0.6839 | 1150.1 | –
293.15 K, x1 = 0.6917 | 1150 | 326.6
293.15 K, x1 = 0.7702 | 1149.8 | 351.4
293.15 K, x1 = 0.7767 | 1149.7 | –
293.15 K, x1 = 0.786 | 1149.6 | –
293.15 K, x1 = 0.8514 | 1149.3 | –
293.15 K, x1 = 0.8665 | 1149.2 | 382.6
293.15 K, x1 = 0.8727 | 1149.2 | –
298.15 K, x1 = 0.098 | 1143.2 | 136.7
298.15 K, x1 = 0.1933 | 1145.8 | 167
298.15 K, x1 = 0.3062 | 1146.7 | 203.5
298.15 K, x1 = 0.3988 | 1146.9 | 233.4
298.15 K, x1 = 0.4936 | 1146.8 | 264
298.15 K, x1 = 0.5941 | 1146.6 | 296.8
298.15 K, x1 = 0.5973 | 1146.6 | –
298.15 K, x1 = 0.6839 | 1146.4 | –
298.15 K, x1 = 0.6917 | 1146.2 | 328.3
298.15 K, x1 = 0.7702 | 1146.1 | 353.4
298.15 K, x1 = 0.7767 | 1146 | –
298.15 K, x1 = 0.786 | 1146 | –
298.15 K, x1 = 0.8514 | 1145.8 | –
298.15 K, x1 = 0.8665 | 1145.7 | 384.8
298.15 K, x1 = 0.8727 | 1145.7 | –
303.15 K, x1 = 0.098 | 1137.7 | 137.2
303.15 K, x1 = 0.1933 | 1140.9 | 167.7
303.15 K, x1 = 0.3062 | 1142.3 | 204.4
303.15 K, x1 = 0.3988 | 1142.7 | 234.5
303.15 K, x1 = 0.4936 | 1142.8 | 265.4
303.15 K, x1 = 0.5941 | 1142.8 | 298.3
303.15 K, x1 = 0.5973 | 1142.8 | –
303.15 K, x1 = 0.6839 | 1142.6 | –
303.15 K, x1 = 0.6917 | 1142.5 | 330
303.15 K, x1 = 0.7702 | 1142.5 | 355.4
303.15 K, x1 = 0.7767 | 1142.4 | –
303.15 K, x1 = 0.786 | 1142.4 | –
303.15 K, x1 = 0.8514 | 1142.3 | –
303.15 K, x1 = 0.8665 | 1142.1 | 387
303.15 K, x1 = 0.8727 | 1142.2 | –
308.15 K, x1 = 0.098 | 1132.1 | 137.7
308.15 K, x1 = 0.1933 | 1136 | 168.4
308.15 K, x1 = 0.3062 | 1137.8 | 205.3
308.15 K, x1 = 0.3988 | 1138.5 | 235.6
308.15 K, x1 = 0.4936 | 1138.8 | 266.7
308.15 K, x1 = 0.5941 | 1138.9 | 299.8
308.15 K, x1 = 0.5973 | 1138.9 | –
308.15 K, x1 = 0.6839 | 1138.9 | –
308.15 K, x1 = 0.6917 | 1138.8 | 331.7
308.15 K, x1 = 0.7702 | 1138.9 | 357.3
308.15 K, x1 = 0.7767 | 1138.8 | –
308.15 K, x1 = 0.786 | 1138.8 | –
308.15 K, x1 = 0.8514 | 1138.7 | –
308.15 K, x1 = 0.8665 | 1138.6 | 389.1
308.15 K, x1 = 0.8727 | 1138.6 | –
313.15 K, x1 = 0.098 | 1126.6 | 138.3
313.15 K, x1 = 0.1933 | 1131.1 | 169.2
313.15 K, x1 = 0.3062 | 1133.4 | 206.3
313.15 K, x1 = 0.3988 | 1134.3 | 236.9
313.15 K, x1 = 0.4936 | 1134.8 | 268.2
313.15 K, x1 = 0.5941 | 1135.1 | 301.3
313.15 K, x1 = 0.5973 | 1135.1 | –
313.15 K, x1 = 0.6839 | 1135.2 | –
313.15 K, x1 = 0.6917 | 1135.1 | 333.4
313.15 K, x1 = 0.7702 | 1135.3 | 359.2
313.15 K, x1 = 0.7767 | 1135.2 | –
313.15 K, x1 = 0.786 | 1135.2 | –
313.15 K, x1 = 0.8514 | 1135.2 | –
313.15 K, x1 = 0.8665 | 1135.1 | 391.3
313.15 K, x1 = 0.8727 | 1135.1 | –
318.15 K, x1 = 0.098 | 1121 | 138.8
318.15 K, x1 = 0.1933 | 1126.2 | 169.9
318.15 K, x1 = 0.3062 | 1129 | 207.3
318.15 K, x1 = 0.3988 | 1130.2 | 238.1
318.15 K, x1 = 0.4936 | 1130.9 | 269.6
318.15 K, x1 = 0.5941 | 1131.3 | 302.8
318.15 K, x1 = 0.5973 | 1131.3 | –
318.15 K, x1 = 0.6839 | 1131.5 | –
318.15 K, x1 = 0.6917 | 1131.4 | 335
318.15 K, x1 = 0.7702 | 1131.6 | 361.1
318.15 K, x1 = 0.7767 | 1131.6 | –
318.15 K, x1 = 0.786 | 1131.6 | –
318.15 K, x1 = 0.8514 | 1131.7 | –
318.15 K, x1 = 0.8665 | 1131.6 | 393.4
318.15 K, x1 = 0.8727 | 1131.6 | –

[3]
Conditions | excess molar enthalpy [kcal/mol]
x1 = 0.1 | -0.0174
x1 = 0.2074 | -0.0296
x1 = 0.3028 | -0.0349
x1 = 0.4096 | -0.0382
x1 = 0.5095 | -0.038
x1 = 0.6072 | -0.0342
x1 = 0.7148 | -0.027
x1 = 0.7891 | -0.0225
x1 = 0.8821 | -0.012

C[N+](=O)[O-] [nitromethane] + CCCCn1cc[n+](C)c1.O=S(=O)([O-])C(F)(F)F
Conditions | mass density, [1] [kg/m3] | molar heat capacity at constant pressure, [2] [J/K/mol]
293.15 K, x2 = 0.0495 | 1173.6 | 121.1
293.15 K, x2 = 0.0972 | 1196.4 | 136
293.15 K, x2 = 0.2021 | 1229.9 | 168.8
293.15 K, x2 = 0.2955 | 1249.1 | 198.5
293.15 K, x2 = 0.4015 | 1264.3 | 231.5
293.15 K, x2 = 0.495 | 1274.2 | 261.4
293.15 K, x2 = 0.5993 | 1282.6 | 294.6
293.15 K, x2 = 0.6939 | 1288.6 | 324.4
293.15 K, x2 = 0.7858 | 1293.3 | 353.8
293.15 K, x2 = 0.8697 | 1296.9 | 380.5
293.15 K, x2 = 0.9286 | 1299.1 | 398.8
298.15 K, x2 = 0.0495 | 1167.4 | 121.4
298.15 K, x2 = 0.0972 | 1190.6 | 136.4
298.15 K, x2 = 0.2021 | 1224.7 | 169.4
298.15 K, x2 = 0.2955 | 1244.2 | 199.4
298.15 K, x2 = 0.4015 | 1259.7 | 232.6
298.15 K, x2 = 0.495 | 1269.7 | 262.6
298.15 K, x2 = 0.5993 | 1278.2 | 296.1
298.15 K, x2 = 0.6939 | 1284.3 | 326.1
298.15 K, x2 = 0.7858 | 1289.1 | 355.6
298.15 K, x2 = 0.8697 | 1292.8 | 382.7
298.15 K, x2 = 0.9286 | 1295.1 | 400.9
303.15 K, x2 = 0.0495 | 1161.2 | 121.8
303.15 K, x2 = 0.0972 | 1184.8 | 137
303.15 K, x2 = 0.2021 | 1219.4 | 170.1
303.15 K, x2 = 0.2955 | 1239.3 | 200.3
303.15 K, x2 = 0.4015 | 1255 | 233.9
303.15 K, x2 = 0.495 | 1265.2 | 263.9
303.15 K, x2 = 0.5993 | 1273.9 | 297.8
303.15 K, x2 = 0.6939 | 1280.1 | 327.9
303.15 K, x2 = 0.7858 | 1285 | 357.5
303.15 K, x2 = 0.8697 | 1288.8 | 385
303.15 K, x2 = 0.9286 | 1291.1 | 403.3
308.15 K, x2 = 0.0495 | 1154.9 | 122.3
308.15 K, x2 = 0.0972 | 1178.9 | 137.5
308.15 K, x2 = 0.2021 | 1214.2 | 170.9
308.15 K, x2 = 0.2955 | 1234.3 | 201.4
308.15 K, x2 = 0.4015 | 1250.3 | 235.2
308.15 K, x2 = 0.495 | 1260.7 | 265.3
308.15 K, x2 = 0.5993 | 1269.6 | 299.5
308.15 K, x2 = 0.6939 | 1275.9 | 329.8
308.15 K, x2 = 0.7858 | 1280.9 | 359.6
308.15 K, x2 = 0.8697 | 1284.7 | 387.4
308.15 K, x2 = 0.9286 | 1287.1 | 405.7
313.15 K, x2 = 0.0495 | 1148.8 | 122.8
313.15 K, x2 = 0.0972 | 1173.2 | 138.2
313.15 K, x2 = 0.2021 | 1209 | 171.7
313.15 K, x2 = 0.2955 | 1229.5 | 202.5
313.15 K, x2 = 0.4015 | 1245.7 | 236.6
313.15 K, x2 = 0.495 | 1256.3 | 266.8
313.15 K, x2 = 0.5993 | 1265.3 | 301.3
313.15 K, x2 = 0.6939 | 1271.7 | 331.8
313.15 K, x2 = 0.7858 | 1276.8 | 361.8
313.15 K, x2 = 0.8697 | 1280.7 | 389.9
313.15 K, x2 = 0.9286 | 1283.1 | 408.3
318.15 K, x2 = 0.0495 | 1142.5 | 123.3
318.15 K, x2 = 0.0972 | 1167.4 | 138.7
318.15 K, x2 = 0.2021 | 1203.7 | 172.5
318.15 K, x2 = 0.2955 | 1224.6 | 203.6
318.15 K, x2 = 0.4015 | 1241.1 | 238
318.15 K, x2 = 0.495 | 1251.8 | 268.3
318.15 K, x2 = 0.5993 | 1261 | 303.2
318.15 K, x2 = 0.6939 | 1267.5 | 334
318.15 K, x2 = 0.7858 | 1272.7 | 364.1
318.15 K, x2 = 0.8697 | 1276.7 | 392.6
318.15 K, x2 = 0.9286 | 1279.1 | 411.1

[3]
Conditions | excess molar enthalpy [kcal/mol]
x2 = 0.1022 | 0.00932
x2 = 0.1994 | 0.0136
x2 = 0.3029 | 0.0148
x2 = 0.4044 | 0.0141
x2 = 0.5067 | 0.0134
x2 = 0.5931 | 0.0108
x2 = 0.703 | 0.00741
x2 = 0.7814 | 0.0012
x2 = 0.8933 | -0.00215
